Assay results published in ChEMBL document CHEMBL1641404 (Bioorg Med Chem Lett, 2011).

Columns and labels:
Assay type in all cases: ADME, organism-based
[1] = Half life in CD-1 mouse 10 mg/kg, po; parameters: dose 10 mg/kg, route oral; conditions: in vivo
[2] = Volume of distribution in CD-1 mouse 1 mg/kg, iv; parameters: dose 1 mg/kg, route intravenous; conditions: in vivo
[3] = Tmax in CD-1 mouse 10 mg/kg, po; parameters: dose 10 mg/kg, route oral; conditions: in vivo
Mus musculus = assay: Cmax in CD-1 mouse 10 mg/kg, po; parameters: dose 10 mg/kg, route oral; conditions: in vivo
[4] = Half life in CD-1 mouse 1 mg/kg, iv; parameters: dose 1 mg/kg, route intravenous; conditions: in vivo
[5] = Clearance in Sprague-Dawley rat 1 mg/kg, iv; parameters: dose 1 mg/kg, route intravenous; conditions: in vivo
[6] = AUC (0 to t) in CD-1 mouse 1 mg/kg, iv; parameters: dose 1 mg/kg, route intravenous; conditions: plasma
Rattus norvegicus = assay: Cmax in Sprague-Dawley rat 5 mg/kg, po; parameters: dose 5 mg/kg, route oral; conditions: in vivo
[7] = Oral bioavailability in Sprague-Dawley rat 5 mg/kg; conditions: in vivo
[8] = Oral bioavailability in CD-1 mouse 10 mg/kg; conditions: in vivo
[9] = AUC (0 to t) in CD-1 mouse 10 mg/kg, po; parameters: dose 10 mg/kg, route oral; conditions: plasma
[10] = Half life in Sprague-Dawley rat 1 mg/kg, iv; parameters: dose 1 mg/kg, route intravenous; conditions: in vivo
[11] = AUC (0 to t) in Sprague-Dawley rat 5 mg/kg, po; parameters: dose 5 mg/kg, route oral; conditions: plasma
[12] = Tmax in Sprague-Dawley rat 5 mg/kg, po; parameters: dose 5 mg/kg, route oral; conditions: in vivo
[13] = Volume of distribution in Sprague-Dawley rat 1 mg/kg, iv; parameters: dose 1 mg/kg, route intravenous; conditions: in vivo
[14] = Clearance in CD-1 mouse 1 mg/kg, iv; parameters: dose 1 mg/kg, route intravenous; conditions: in vivo
[15] = Plasma concentration in mouse bearing ALK-positive tumor xenografts at 30 mg/kg, po up to 12 hrs; parameters: dose 30 mg/kg, route oral
[16] = AUC (0 to t) in Sprague-Dawley rat 1 mg/kg, iv; parameters: dose 1 mg/kg, route intravenous; conditions: plasma

What does the source list for COc1cc2c(cc1Nc1ncc(Cl)c(Nc3ccc(N4CCOCC4)cc3OC)n1)CCN(CC(=O)N(C)C)CC2?
half-life [1]: 186 min; Vd [2]: 1.2 L/kg; Tmax [3]: 30 min; Cmax (Mus musculus): 1190 ng/mL; half-life [4]: 42 min; clearance [5]: 16 mL/min/kg; AUC(0-t) [6]: 830 ng·h/mL; Cmax (Rattus norvegicus): 306 ng/mL; bioavailability [7]: 30%; bioavailability [8]: 64%; AUC(0-t) [9]: 3900 ng·h/mL; half-life [10]: 48 min; AUC(0-t) [11]: 1400 ng·h/mL; Tmax [12]: 198 min; Vd [13]: 1.1 L/kg; clearance [14]: 20 mL/min/kg; concentration at 12 h [15]: 3000 nM; AUC(0-t) [16]: 1020 ng·h/mL
